Four compounds from patent publication US20090264477A1, “BETA ADRENERGIC RECEPTOR AGONISTS FOR TREATMENT OF PAIN AND/OR INFLAMMATION” (Warsaw Orthopedic, Inc., An Indiana Corporation, priority 2008, published 2009) can be followed below.

The test system of experiment [1] is rat Chronic Constriction Injury model (Bennett Model). Description: von Frey test (mechanical threshold, mechanical allodynia) in rat Chronic Constriction Injury model. Type of experiment: in vivo, Wistar rats. As to the method:
The inventors evaluated the efficacy of a various beta-2-adrenergic receptor agonists and compared them to clonidine (an alpha-2-agonist) and saline in the rat Chronic Constriction Injury model (i.e., Bennett Model) using Wistar rats.
Hargreaves tests were conducted on days 7 and 14; […], where some drug compositions having predominantly beta-2 agonist activity were compared to clonidine a drug composition that has predominantly alpha-2 agonist activity and saline. The doses given would mimic those achievable by a continuous release drug depot containing a biodegradable polymer (7 rats in each group). […]
FIG. 4 is a graphic representation of the mechanical threshold as a percentage from baseline in rats given clonidine 0.02 mg/kg, ritodrine 5 mg/kg, ritodrine 2 mg/kg, salbutamol 10 mg/kg, salbutamol 5 mg/kg, terbutaline 0.5 mg/kg, terbutaline 0.1 mg/kg, and saline subcutaneously every day for 15 days. […]

For experiment [2] the test system is unchanged. Description: Hargreaves test (thermal paw withdrawal latency, thermal hyperalgesia) in rat Chronic Constriction Injury model. In kind it is in vivo, Wistar rats. An excerpt: The inventors evaluated the efficacy of a various beta-2-adrenergic receptor agonists and compared them to clonidine (an alpha-2-agonist) and saline in the rat Chronic Constriction Injury model (i.e., Bennett Model) using Wistar rats. The purpose: To determine whether the beta-2-adrenergic receptor agonists can improve pain associated behavioral responses in a rat model of neuropathic pain.
The doses given would mimic those achievable by a continuous release drug depot containing a biodegradable polymer (7 rats in each group).

Setting [3] is: 5 mg/kg subcutaneous every day for 15 days, day 14.

For `CC(NCCc1ccc(O)cc1)C(O)c1ccc(O)cc1` (centres unmarked) [ritodrine], the “pain behavioral response for mechanical allodynia (mechanical threshold, percentage of baseline) compared with saline group” value in experiment [1] (setting [3]) was “statistically significant result of decreasing pain responses”. For the same compound, the “pain behavioral response for thermal hyperalgesia (thermal paw withdrawal latency, percentage of baseline) compared with saline group” value in experiment [2] (2 mg/kg subcutaneous every day for 15 days, day 7) is recorded as “statistically significant result of decreasing pain responses”; in experiment [2] (setting [3]), “statistically significant result of decreasing pain responses”.

Take `CC(C)(C)NCC(O)c1ccc(O)c(CO)c1` (centres unmarked) [salbutamol]: the “pain behavioral response for mechanical allodynia (mechanical threshold, percentage of baseline) compared with saline group” value in experiment [1] (setting [3]) is “statistically significant result of decreasing pain responses”; in experiment [1] (10 mg/kg subcutaneous every day for 15 days, days 8 and 15), “statistically significant result of decreasing pain responses”. Also, the “pain behavioral response for thermal hyperalgesia (thermal paw withdrawal latency, percentage of baseline) compared with saline group” value in experiment [2] (5 mg/kg subcutaneous every day for 15 days, days 7 and 14) was “statistically significant result of decreasing pain responses”; in experiment [2] (10 mg/kg subcutaneous every day for 15 days, days 7 and 14) it was “statistically significant result of decreasing pain responses”.

In the case of `Clc1cccc(Cl)c1N=C1NCCN1` [clonidine, 2,6-dichloro-N-2-imidazolidinyldenebenzenamine], in experiment [2] (0.02 mg/kg subcutaneous every day for 15 days, day 14), the “pain behavioral response for thermal hyperalgesia (thermal paw withdrawal latency, percentage of baseline) compared with saline group” value is listed as “statistically significant result of decreasing pain responses”.

Regarding `CC(C)(C)NCC(O)c1cc(O)cc(O)c1` (centres unmarked) [terbutaline], in experiment [1] (0.5 mg/kg subcutaneous every day for 15 days, day 14), the “pain behavioral response for mechanical allodynia (mechanical threshold, percentage of baseline) compared with saline group” value was “statistically significant result of decreasing pain responses”. The “pain behavioral response for thermal hyperalgesia (thermal paw withdrawal latency, percentage of baseline) compared with saline group” value is “statistically significant result of decreasing pain responses” in experiment [2] (0.1 mg/kg subcutaneous every day for 15 days, days 7 and 14); “statistically significant result of decreasing pain responses” in experiment [2] (0.5 mg/kg subcutaneous every day for 15 days, days 7 and 14).
